In brackets after ≈: the same amount, converted by molar mass. Entries after “also recorded” stand apart in the source; their conditions may differ.
Legend:
Format in all cases: cell-based
[1] = tested on: DNA of tumor sarcoma 180 (S-180); test: Influence on methylation of DNA of tumor sarcoma 180 in vitro (5-MC content); conditions: 3 × 10^−6 M compound, 24 h at 37 °C; for inhibition at 3 µM: reduction of 5-MC content vs S-180 control, read-out: Inhibition of the Level of DNA Methylation; for Content of Bases in DNA, 5-MC ± ζ: tumor homogenate, S-180 control 0.64 ± 0.02, seven determinations; for Effect on tumor DNA methylation (in words): S-180
Method: It is known that DNA methylation in cancer plays a variety of roles, helping to change the healthy regulation of gene expression to a disease pattern. DNA hypermethylation in neoplasia is a specific epigenetic sign that can guide the diagnosis and treatment of this disease. We studied the effect of synthesized substances on tumor DNA in vitro. After the incubation of tumor cells with the studied compounds, the isolated DNA was hydrolyzed to nitrogen bases. In the studied DNA, the nucleotide composition (guanine (G), cytosine (C), 5-methylcitosine (5-MC), adenine (A), thymine (T)) complied with the rules of Chargaff. Isolated DNA belonged to the AT type, and the amount of basic bases (G + C + 5-MC) within them was 42.24–44.64 mol %, which is typical for eukaryotic DNA. Almost the same content of basic bases (G, C, A, and T) was observed, while a clear difference between DNA samples was found only in relation to the content of 5-MC, which indicated the demethylating ability of the compounds.
The influence of synthesized compounds on the methylation of DNA of tumor sarcoma 180 (S-180) was studied in vitro. Transplanted S-180 was isolated from animals after slaughter by decapitation under ether narcosis. A 3 × 10^−6 M solution of compounds (solvent: carboxymethylcellulose) was added to the tumor homogenate (12.5 mL of a solution per 10 g of tumor), and the mixture was incubated for 24 h at 37 °C. After the incubation, tumor DNA was extracted using the phenol–chloroform method. Hydrolysis to the nitrogen bases was carried out in sealed glass ampoules in 85% formic acid at 176 °C for 1 h (0.1 mL of acid per 1 mg of DNA). The separation of nitrogen bases (guanine (G), cytosine (C), 5-methylcitosine (5-MC), adenine (A), and thymine (T)) was produced by thin-layer chromatography in the solvent n-butanol/water/ammonia. Spectrophotometry of the eluates of all bases was made against eluates from the respective control areas of the chromatograms. In our studies, the well-known antitumor drug doxorubicin (manufactured by EBEWE Pharma Ges.m.b.H. Nfg. KG, 4866 Unterach, Austria) was used as a standard preparation. The data were statistically processed using Student’s and Fischer’s tests (p < 0.05).

HeLa cells = test: Cell viability (MTT) assay, HeLa; conditions: Homo sapiens, 72 h, read-out: IC50, antiproliferative activity
Method: (§1) Vero and HeLa cells were seeded in a 96-well culture plate at a density of 20,000 cells/well. The plates were preincubated in a 5% CO2/95% air-humidified atmosphere at 37 °C for 24 h to allow for adaptation of the cells prior to the addition of the test compounds. All compounds were dissolved in dimethyl sulfoxide (DMSO) prior to dilution (1 mg/mL stock solution). The 50% inhibitory concentration (IC50) was determined over a range of concentrations (0.5 μg/mL to 10 μg/mL). All cells were incubated for 72 h, and then cell viability was estimated using an MTT (3-(4,5-dimethylthiazol-2-yl)-2,5-diphenyltetrazolium bromide) assay, as previously described. Colorimetric measurements were performed on a microplate reader at 570 nm (Tecan Spectra II, Switzerland). The percentage of viable cells was calculated for each concentration as ((ODT/ODC) × 100), where ODT and ODC corresponded to the absorbance of the treated and control cells, respectively. The IC50 was calculated by using linear regression analysis.

Vero cells = test: Cell viability (MTT) assay, Vero; conditions: Chlorocebus sabaeus, Vero (normal cells), 72 h, read-out: IC50, antiproliferative activity
Method: as §1

Row | IC50 (HeLa cells) | SMILES | inhibition at 3 µM [1] | Content of Bases in DNA, 5-MC ± ζ [1] | IC50 (Vero cells) | Effect on tumor DNA methylation (in words) [1]
1 | – | c1coc(-c2nc3sc4c(N5CCCCC5)ncnc4c3c3c2CCCC3)c1 [Compound 5a, 5-(2-Furyl)-8-piperidin-1-yl-1,2,3,4-tetrahydropyrimido[4′,5′:4,5]thieno[2,3-c]isoquinoline] | 40.6% | 0.38 ± 0.02 mol % | – | –
2 | 8.4 ± 0.2 µg/mL (≈ 20.8 µM) | CC1CCN(c2ncnc3c2sc2nc(-c4ccco4)c4c(c23)CCCC4)CC1 [Compound 5b, 5-(2-Furyl)-8-(4-methylpiperidin-1-yl)-1,2,3,4-tetrahydropyrimido[4′,5′:4,5]thieno[2,3-c]isoquinoline] | 60.9% | 0.25 ± 0.02 mol % | 16.8 ± 0.6 µg/mL (≈ 41.5 µM) | –
3 | – | c1coc(-c2nc3sc4c(N5CCOCC5)ncnc4c3c3c2CCCC3)c1 [Compound 5c, 5-(2-Furyl)-8-morpholin-4-yl-1,2,3,4-tetrahydropyrimido[4′,5′:4,5]thieno[2,3-c]isoquinoline] | 23% | 0.49 ± 0.02 mol % | – | –
4 | – | CC(C)CNc1ncnc2c1sc1nc(-c3ccco3)c3c(c12)CCCC3 [Compound 5d, 5-(2-Furyl)-N-isobutyl-1,2,3,4-tetrahydropyrimido[4′,5′:4,5]thieno[2,3-c]isoquinolin-8-amine] | 34.4% | 0.42 ± 0.03 mol % | – | –
5 | – | CCN(CC)CCNc1ncnc2c1sc1nc(-c3ccco3)c3c(c12)CCCC3 [Compound 5e, N,N-Diethyl-N′-[5-(2-furyl)-1,2,3,4-tetrahydropyrimido[4′,5′:4,5]thieno[2,3-c]isoquinolin-8-yl]ethane-1,2-diamine] | 28.1% | 0.46 ± 0.02 mol % | – | –
6 | 4.4 ± 0.3 µg/mL (≈ 10.8 µM) | c1coc(-c2nc3sc4c(NCC5CCCO5)ncnc4c3c3c2CCCC3)c1 (stereo not shown) [Compound 5f, 5-(2-Furyl)-N-(tetrahydrofuran-2-ylmethyl)-1,2,3,4-tetrahydropyrimido[4′,5′:4,5]thieno[2,3-c]isoquinolin-8-amine] | 89.1% | 0.07 ± 0.02 mol % | 6.4 ± 0.4 µg/mL (≈ 15.7 µM) | –
7 | – | CC(C)c1nc2oc3c(NCCO)ncnc3c2c2c1COC(C)(C)C2 [Compound 7a] | – | 0.85 ± 0.03 mol % | – | –
8 | 5.4 ± 0.2 µg/mL (≈ 14.1 µM) | CC(C)c1nc2oc3c(NCCN(C)C)ncnc3c2c2c1COC(C)(C)C2 [Compound 7b] | 62.5% | 0.24 ± 0.01 mol % | 13.7 ± 0.4 µg/mL (≈ 35.7 µM) | –
9 | – | CCN(CC)CCNc1ncnc2c1oc1nc(C(C)C)c3c(c12)CC(C)(C)OC3 [Compound 7c, N,N-Diethyl-N′-(5-isopropyl-2,2-dimethyl-1,4-dihydro-2H-pyrano[4″,3″:4′,5′]pyrido[3′,2′:4,5]furo[3,2-d]pyrimidin-8-yl)ethane-1,2-diamine] | 42.2% | 0.37 ± 0.01 mol % | – | –
10 | – | CC(C)c1nc2oc3c(NCCN4CCOCC4)ncnc3c2c2c1COC(C)(C)C2 [Compound 7d] | 48.4% | 0.33 ± 0.01 mol % | – | –
11 | – | COc1ccc(CCNc2ncnc3c2oc2nc(C(C)C)c4c(c23)CC(C)(C)OC4)cc1OC [Compound 7e, N-[2-(3,4-Dimethoxyphenyl)ethyl]-5-isopropyl-2,2-dimethyl-1,4-dihydro-2H-pyrano[4″,3″:4′,5′]pyrido[3′,2′:4,5]furo[3,2-d]pyrimidin-8-amine] | 56.2% | 0.28 ± 0.01 mol % | – | –
12 | – | CC(C)c1nc2oc3c(NCC4CCCO4)ncnc3c2c2c1COC(C)(C)C2 (stereo not shown) [Compound 7f, 5-Isopropyl-2,2-dimethyl-N-(tetrahydrofuran-2-ylmethyl)-1,4-dihydro-2H-pyrano[4″,3″:4′,5′]pyrido[3′,2′:4,5]furo[3,2-d]pyrimidin-8-amine] | 21.9% | 0.50 ± 0.02 mol % | – | –
13 | – | CC(C)c1nc2oc3c(NCc4ccco4)ncnc3c2c2c1COC(C)(C)C2 [Compound 7g, N-(2-Furylmethyl)-5-isopropyl-2,2-dimethyl-1,4-dihydro-2H-pyrano[4″,3″:4′,5′]pyrido[3′,2′:4,5]furo[3,2-d]pyrimidin-8-amine] | 40.6% | 0.38 ± 0.02 mol % | – | –
14 | – | CC(C)c1nc2oc3c(NCc4cccnc4)ncnc3c2c2c1COC(C)(C)C2 [Compound 7h] | 34.4% | 0.42 ± 0.02 mol % | – | –
15 | – | CC(C)c1nc2oc3c(NCCCN(C)C)ncnc3c2c2c1COC(C)(C)C2 [Compound 7i] | – | – | – | did not affect DNA methylation; also recorded: loss of activity
16 | – | CC(C)Cc1nc2oc3c(NCCO)ncnc3c2c2c1COC(C)(C)C2 [Compound 7j, 2-[(5-Isobutyl-2,2-dimethyl-1,4-dihydro-2H-pyrano[4″,3″:4′,5′]pyrido[3′,2′:4,5]furo[3,2-d]pyrimidin-8-yl)amino]ethanol] | – | – | – | did not affect DNA methylation; also recorded: no activity
17 | – | CC(C)Cc1nc2oc3c(NCCCO)ncnc3c2c2c1COC(C)(C)C2 [Compound 7k] | 18.8% | 0.52 ± 0.01 mol % | – | –
18 | – | CCOC(=O)N1CCN(c2ncnc3c2sc2nc(C(C)C)c4c(c23)CC(C)(C)OC4)CC1 [Compound 7l, Ethyl 4-(5-isopropyl-2,2-dimethyl-1,4-dihydro-2H-pyrano[4″,3″:4′,5′]pyrido[3′,2′:4,5]thieno[3,2-d]pyrimidin-8-yl)piperazine-1-carboxylate] | 29.7% | 0.45 ± 0.03 mol % | – | –
19 | – | CC(C)c1nc2sc3c(NCC4CCCO4)ncnc3c2c2c1COC(C)(C)C2 (stereo not shown) [Compound 7m, 5-Isopropyl-2,2-dimethyl-N-(tetrahydrofuran-2-ylmethyl)-1,4-dihydro-2H-pyrano[4″,3″:4′,5′]pyrido[3′,2′:4,5]thieno[3,2-d]pyrimidin-8-amine] | 37.5% | 0.40 ± 0.02 mol % | – | –
20 | – | COc1cccc2c1C(=O)c1c(O)c3c(c(O)c1C2=O)C[C@@](O)(C(=O)CO)C[C@@H]3O[C@H]1C[C@H](N)[C@H](O)[C@H](C)O1 [Doxorubicin, doxorubicin, reference compound] | 67.2% | 0.21 ± 0.01 mol % | – | –
